{
  "source": "paper PMC11676189",
  "about": "“Improving the Anti-Tumor Effect of Indoleamine 2,3-Dioxygenase Inhibitor CY1-4 by CY1-4 Nano-Skeleton Drug Delivery System” (Journal of Functional Biomaterials, 2024)",
  "key": {"[1]": {"assay": "Solubility of CY1-4 (excess sample shaken in a 37 °C water bath for 48 h, HPLC)", "assay_type": "physicochemical", "conditions": "thermodynamic from solid", "procedure": "The excess MSNM@CY1-4 was placed in deionized water and was shaken in a 37 °C water bath for 48 h. The supernatant was filtered after centrifugation at 10,000 rpm, and the filtrate was collected. The CY1-4 was measured using HPLC to calculate the solubility of CY1-4."}, "[2]": {"assay": "In vitro dissolution of CY1-4 in artificial gastric fluid (pH 1.2) and artificial intestinal fluid (pH 6.8)", "assay_type": "physicochemical", "procedure": "MSNM@CY1-4 (equivalent to 3 mg of CY1-4) was dispersed in 600 mL artificial gastric fluid (pH 1.2 containing 0.1% (v/v) Tween-80) or 600 mL artificial intestinal fluid (pH 6.8 containing 0.1% (v/v) Tween-80) at 37 °C and 100 rpm. Samples were taken at 0, 2, 5, 12, 20, 40, and 60 min. Each sample was filtered through a 0.22 μm filter membrane and determined by HPLC."}, "[3]": {"design": "method as in PMID 28053021", "conditions": "cited from earlier work"}, "[4]": {"system": "unresectable metastatic melanoma", "conditions": "combined with Keytruda vs Keytruda alone; phase III, 2018; cited from earlier work"}, "[5]": {"system": "recurrent malignant glioma", "design": "method as in PMID 32436060", "conditions": "up to 500 mg BID; patients with recurrent malignant glioma; cited from earlier work"}},
  "data": [
    {"compound": "O=C1c2cc([N+](=O)[O-])ccc2-n2c1nc1ncccc1c2=O", "note": "[CY1-4, 9-nitropyridine [2′,3′:4,5] pyrimido [1,2-α] indole-5,11-dione]", "values": [
      {"measurement": "solubility at 48 h", "setting": "[1]; deionized water, water", "value": "< 100", "unit": "µg/mL"},
      {"measurement": "solubility at 48 h", "setting": "[1]; deionized water, water, 48 h", "value": "1.16 ± 0.08", "unit": "µg/mL"},
      {"measurement": "solubility at 48 h", "setting": "[1]; pH 1.2 medium, pH 1.2, simulated gastric fluid, pH = 1.2", "value": "1.36 ± 0.04", "unit": "µg/mL"},
      {"measurement": "solubility at 48 h", "setting": "[1]; pH 6.8 medium, pH 6.8, aqueous buffer, pH = 6.8", "value": "1.19 ± 0.09", "unit": "µg/mL"},
      {"measurement": "CY1-4 dissolved", "setting": "[2]; artificial gastric fluid pH 1.2, 5 min", "value": "about 6%"},
      {"measurement": "CY1-4 dissolved after the 5 min maximum (decreased to)", "setting": "[2]; artificial gastric fluid pH 1.2, after 5 min", "value": "about 1%"},
      {"measurement": "CY1-4 dissolved", "setting": "[2]; artificial intestinal fluid pH 6.8, 5 min", "value": "about 4%"},
      {"measurement": "CY1-4 dissolved after the 5 min maximum (decreased to)", "setting": "[2]; artificial intestinal fluid pH 6.8, after 5 min", "value": "about 1%"}
    ]},
    {"compound": "NS(=O)(=O)NCCNc1nonc1C(=NO)Nc1ccc(F)c(Br)c1", "note": "[Epacadostat]", "values": [
      {"measurement": "Tolerability", "setting": "[3]", "value": "well tolerated"},
      {"measurement": "Inhibition of IDO1 activity", "setting": "[3]; dose of ≥100 mg BID", "value": "could effectively inhibit the activity of IDO1"},
      {"measurement": "Progression-free survival", "setting": "[4]", "value": "failed to significantly improve the progression-free survival"}
    ]},
    {"compound": "O=C1CC(c2c[nH]c3ccc(F)cc23)C(=O)N1", "note": "(stereo not drawn) [PF-06840003]", "values": [
      {"measurement": "Tolerability", "setting": "[5]", "value": "generally well tolerated"}
    ]}
  ]
}
